According to patent US11802131B2, “Glutarimides for medical treatment” (C4 Therapeutics, Inc., priority 2017, dated 2023):

Target: hCereblon(M1-L442)_hDDB1(M1-H1140) (Homo sapiens (Human), UniProt Q96SW2)
Experiment: Fluorescence direct binding protocol (tryptophan fluorescence titration)
Settings: 20° C., excited at 280 nm, recorded at 340 nm, assay buffer 50 mM Hepes 7.4 200 mM NaCl; read-out: Fluorescence h-Cereblon_DDB1 Mean Kd_EQ
Experimental: Fluorescence Direct Binding Protocol
Determination of the affinities of compounds to protein containing one or more tryptophan is measurable by monitoring the fluorescence emission in direct mode. The measurements depending on the protein available amounts are performed either manually in a cuvette on ISS-PC1 photon counting spectrofluorometer or automatically in well plates on a fluorescence plate reader device. Fluorescence titrations are performed at 20° C. in the chosen binding assay buffer by using a defined constant protein concentration against ligand concentration variations. Small aliquots of known ligand concentration solubilized in DMSO were added and the fluorescence, excited at 280 nm, was recorded at 340 nm. The fluorescence intensity was corrected for protein dilution and for the filter effect (Birdsall et al.^72).
1) Optimization of measurement parameters to minimize protein consumption and to minimize the dilution effect and the DMSO content
2) Titration measurements of the protein against ligand by at least 12 titration steps to obtain a good s-curve fit
3) Repeat the same titration measurements with the ligand alone to enable correction
4) Check the stability of the protein once by titration against DMSO alone
5) Determination of the molar extinction coefficients of the ligand at 280 and 340 nm with help of an UV-spectrophotometer
6) Use Excel template for the correction of the measured raw data
7) Use GraphPad Prism software for the quadratic binding fit and the KD evaluation.

hCereblon(M1-L442)_hDDB1(M1-H1140), sequence (Q96SW2 whole entry): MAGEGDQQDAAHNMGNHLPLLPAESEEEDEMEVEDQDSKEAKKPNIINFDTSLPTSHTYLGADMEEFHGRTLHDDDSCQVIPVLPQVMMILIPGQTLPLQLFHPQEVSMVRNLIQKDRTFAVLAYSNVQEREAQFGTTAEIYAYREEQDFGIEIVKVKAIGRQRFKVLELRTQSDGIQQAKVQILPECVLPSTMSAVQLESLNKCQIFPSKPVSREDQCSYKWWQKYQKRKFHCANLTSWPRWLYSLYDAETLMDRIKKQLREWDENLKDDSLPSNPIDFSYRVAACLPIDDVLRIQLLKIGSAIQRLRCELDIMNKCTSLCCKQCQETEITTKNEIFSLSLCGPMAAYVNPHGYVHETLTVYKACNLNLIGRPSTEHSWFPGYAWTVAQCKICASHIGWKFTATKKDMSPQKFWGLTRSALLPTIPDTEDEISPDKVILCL
hCereblon(M1-L442)_hDDB1(M1-H1140), sequence (Q16531 whole entry partner): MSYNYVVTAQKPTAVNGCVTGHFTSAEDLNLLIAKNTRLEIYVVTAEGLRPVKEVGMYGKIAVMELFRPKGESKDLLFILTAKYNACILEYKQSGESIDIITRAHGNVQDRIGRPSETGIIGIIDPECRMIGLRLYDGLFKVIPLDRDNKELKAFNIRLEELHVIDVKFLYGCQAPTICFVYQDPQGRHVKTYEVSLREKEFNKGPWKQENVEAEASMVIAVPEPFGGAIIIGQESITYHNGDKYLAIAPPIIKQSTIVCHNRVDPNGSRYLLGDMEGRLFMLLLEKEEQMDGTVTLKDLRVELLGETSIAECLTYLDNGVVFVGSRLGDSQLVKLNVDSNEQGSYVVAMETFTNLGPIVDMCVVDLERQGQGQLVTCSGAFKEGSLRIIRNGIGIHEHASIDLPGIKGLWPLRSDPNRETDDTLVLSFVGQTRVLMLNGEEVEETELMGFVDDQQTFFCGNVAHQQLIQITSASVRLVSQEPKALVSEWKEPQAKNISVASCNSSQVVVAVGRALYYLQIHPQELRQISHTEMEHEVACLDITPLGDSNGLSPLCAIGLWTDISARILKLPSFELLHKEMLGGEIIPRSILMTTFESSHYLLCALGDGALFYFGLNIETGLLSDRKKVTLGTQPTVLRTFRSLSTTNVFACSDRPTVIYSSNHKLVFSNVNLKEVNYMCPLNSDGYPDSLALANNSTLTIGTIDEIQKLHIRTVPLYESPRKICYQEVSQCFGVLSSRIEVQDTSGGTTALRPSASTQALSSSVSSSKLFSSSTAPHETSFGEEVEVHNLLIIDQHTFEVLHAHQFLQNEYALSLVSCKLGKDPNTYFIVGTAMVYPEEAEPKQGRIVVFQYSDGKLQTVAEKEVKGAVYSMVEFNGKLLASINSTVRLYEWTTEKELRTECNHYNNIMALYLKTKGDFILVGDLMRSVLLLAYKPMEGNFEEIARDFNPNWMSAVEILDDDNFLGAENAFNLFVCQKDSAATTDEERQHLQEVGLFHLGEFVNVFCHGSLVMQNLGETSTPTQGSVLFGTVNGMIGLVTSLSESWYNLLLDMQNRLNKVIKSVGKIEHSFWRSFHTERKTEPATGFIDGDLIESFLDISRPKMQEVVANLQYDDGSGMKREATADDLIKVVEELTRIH

Row | Kd | SMILES
1 | 4 nM | Cn1nc(C(=O)N[C@H]2CCC(=O)NC2=O)c2c1CCN(C(=O)OC(C)(C)C)C2 [Example 71, tert-Butyl (S)-3-((2,6-dioxopiperidin-3-yl)carbamoyl)-1-methyl-1,4,6,7-tetrahydro-5H-pyrazolo[4,3-c]pyridine-5-carboxylate]
2 | 4 nM | O=C1CC[C@H](NC(=O)c2ncc3ccccn23)C(=O)N1 [Example 50, (S)-N-(2,6-Dioxopiperidin-3-yl)imidazo[1,5-a]pyridine-3-carboxamide]
3 | 146 nM | O=C1CCC(NC(=O)C2CCc3ccccc32)C(=O)N1 (stereo not drawn) [Example 6, N-(2,6-Dioxopiperidin-3-yl)-2,3-dihydro-1H-indene-1-carboxamide]
4 | 60 nM | CC(=O)Nc1cccc(CC(=O)N[C@H]2CCC(=O)NC2=O)c1 [Example 68, (S)-2-(3-Acetamidophenyl)-N-(2,6-dioxopiperidin-3-yl)acetamide]
5 | 5 nM | O=C1CC[C@H](NC(=O)C2CCOc3ccccc32)C(=O)N1 (stereo partly drawn) [Example 31, N-[(3S)-2,6-Dioxo-3-piperidyl]chromane-4-carboxamide]
6 | 37 nM | Cc1sc2c(c1C)C(c1ccc(Cl)cc1)=N[C@@H](CC(=O)NCCCCCC(=O)N1CC[C@H](C(=O)N[C@@H]3CCC(=O)NC3=O)c3ccccc31)c1nnc(C)n1-2 [Example B, (4S)-1-[6-[[2-[(9S)-7-(4-Chlorophenyl)-4,5,13-trimethyl-3-thia-1,8,11,12-tetrazatricyclo[8.3.0.02,6]trideca-2(6),4,7,10,12-pentaen-9-yl]acetyl]amino]hexanoyl]-N-[(3R)-2,6-dioxo-3-piperidyl]-3,4-dihydro-2H-quinoline-4-carboxamide]
7 | 68 nM | CN1CCC(C(=O)N[C@@H]2CCC(=O)NC2=O)c2ccccc21 (stereo partly drawn) [Example 40, N-[(3R)-2,6-Dioxo-3-piperidyl]-1-methyl-3,4-dihydro-2H-quinoline-4-carboxamide]
8 | 19 nM | O=C1CC[C@@H](NC(=O)C2CCNc3ccccc32)C(=O)N1 (stereo partly drawn) [Example 39, N-[(3R)-2,6-Dioxo-3-piperidyl]-1,2,3,4-tetrahydroquinoline-4-carboxamide]
9 | 26 nM | O=C1CC[C@@H](NC(=O)c2coc3ccccc23)C(=O)N1 [Example 34, (R)-N-(2,6-Dioxopiperidin-3-yl)benzofuran-3-carboxamide]
10 | 4 nM | O=C1CC[C@@H](NC(=O)[C@@H]2CCCc3ccccc32)C(=O)N1 [Example 45, (1R)-N-[(3R)-2,6-Dioxopiperidin-3-yl]-1,2,3,4-tetrahydronaphthalene-1-carboxamide]
11 | 10 nM | O=C1CC[C@@H](NC(=O)N2CCc3cccnc32)C(=O)N1 [Example 36, (R)-N-(2,6-Dioxopiperidin-3-yl)-2,3-dihydro-1H-pyrrolo[2,3-b]pyridine-1-carboxamide]
12 | 46 nM | CN1C(=O)CCC(NC(=O)[C@H]2CCCc3ccccc32)C1=O (single isomer, unassigned) [Example 75]
13 | 3 nM | O=C1CC[C@@H](NC(=O)C2CCc3ncccc32)C(=O)N1 (stereo partly drawn) [Example 20, N-((R)-2,6-Dioxopiperidin-3-yl)-6,7-dihydro-5H-cyclopenta[b]pyridine-5-carboxamide]
14 | 25 nM | O=C1CC[C@H](NC(=O)C2CCc3cccnc32)C(=O)N1 (stereo partly drawn) [Example 23, N-((S)-2,6-Dioxopiperidin-3-yl)-6,7-dihydro-5H-cyclopenta[b]pyridine-7-carboxamide]
15 | 39 nM | O=C1CC[C@H](NC(=O)[C@@H]2CCCc3ccccc32)C(=O)N1 [Example 46, (1R)-N-[(3S)-2,6-Dioxopiperidin-3-yl]-1,2,3,4-tetrahydronaphthalene-1-carboxamide]
16 | 1 nM | O=C1CC[C@H](NC(=O)c2coc3ccccc23)C(=O)N1 [Example 21, (S)-N-(2,6-Dioxopiperidin-3-yl)benzofuran-3-carboxamide]
17 | < 1 nM | O=C1CC[C@H](NC(=O)c2cnn3ccccc23)C(=O)N1 [Example 47, (S)-N-(2,6-Dioxopiperidin-3-yl)pyrazolo[1,5-a]pyridine-3-carboxamide]

Row | Kd | SMILES
18 | 28 nM | O=C1CCC(NC(=O)c2c[nH]c3ccccc23)C(=O)N1 (stereo not drawn) [Example 7, N-(2,6-Dioxopiperidin-3-yl)-1H-indole-3-carboxamide]
19 | 23 nM | CC(=O)Nc1ccc(CC(=O)N[C@H]2CCC(=O)NC2=O)cc1 [Example 65, (S)-2-(4-Acetamidophenyl)-N-(2,6-dioxopiperidin-3-yl)acetamide]
20 | 19 nM | O=C1CC[C@@H](NC(=O)Cc2cccnc2)C(=O)N1 [Example 63, (R)-N-(2,6-Dioxopiperidin-3-yl)-2-(pyridin-3-yl)acetamide]
21 | 3 nM | CN(C(=O)c1c[nH]c2ccccc12)C1CCC(=O)NC1=O (stereo not drawn) [Example 16, N-(2,6-Dioxopiperidin-3-yl)-N-methyl-1H-indole-3-carboxamide]
22 | 12 nM | O=C1CCC(NC(=O)C2CCCC2)C(=O)N1 (stereo not drawn) [Example 11, N-(2,6-Dioxopiperidin-3-yl)cyclopentanecarboxamide]
23 | 6 nM | O=C1CC[C@H](NC(=O)c2ccc3ccccn23)C(=O)N1 [Example 52, (S)-N-(2,6-Dioxopiperidin-3-yl)indolizine-3-carboxamide]
24 | 22 nM | CN(C(=O)N1CCc2ccccc21)C1CCC(=O)NC1=O (stereo not drawn) [Example 58, N-(2,6-Dioxopiperidin-3-yl)-N-methylindoline-1-carboxamide]
25 | 20 nM | CN(C(=O)N1CCc2ccccc21)[C@H]1CCC(=O)NC1=O [Example 59, (S)-N-(2,6-Dioxopiperidin-3-yl)-N-methylindoline-1-carboxamide]
26 | 194 nM | Cn1nc(C(=O)N[C@H]2CCC(=O)NC2=O)c2c1CCNC2 [Example 72, (S)-N-(2,6-Dioxopiperidin-3-yl)-1-methyl-4,5,6,7-tetrahydro-1H-pyrazolo[4,3-c]pyridine-3-carboxamide]
27 | < 1 nM | O=C1CC[C@@H](NC(=O)[C@H]2CCNc3ccccc32)C(=O)N1 [Example 43, (4S)-N-[(3R)-2,6-Dioxopiperidin-3-yl]-1,2,3,4-tetrahydroquinoline-4-carboxamide]
28 | 1 nM | O=C1CC[C@H](NC(=O)C2CCc3ncccc32)C(=O)N1 (stereo partly drawn) [Example 19, N-((S)-2,6-Dioxopiperidin-3-yl)-6,7-dihydro-5H-cyclopenta[b]pyridine-5-carboxamide]
29 | 14 nM | O=C1CC[C@@H](NC(=O)C2CCOc3ccccc32)C(=O)N1 (stereo partly drawn) [Example 41, N-[(3R)-2,6-Dioxo-3-piperidyl]chromane-4-carboxamide]
30 | < 1 nM | O=C1CC[C@@H](NC(=O)c2cnc3ccccn23)C(=O)N1 [Example 55, (R)-N-(2,6-Dioxopiperidin-3-yl)imidazo[1,2-a]pyridine-3-carboxamide]
31 | < 1 nM | O=C1CCC(NC(=O)[C@H]2CCCc3ccccc32)C(=O)N1 (stereo partly drawn) [Example 15, (1S)-N-(2,6-Dioxopiperidin-3-yl)-1,2,3,4-tetrahydronaphthalene-1-carboxamide]
32 | 15 nM | O=C1CC[C@H](NC(=O)Cc2ccc3c(c2)CC(=O)N3)C(=O)N1 [Example 69, (S)-N-(2,6-Dioxopiperidin-3-yl)-2-(2-oxoindolin-5-yl)acetamide]
33 | 12 nM | O=C1CC[C@@H](NC(=O)[C@@H]2CCNc3ccccc32)C(=O)N1 [Example 44, (4R)-N-[(3R)-2,6-Dioxopiperidin-3-yl]-1,2,3,4-tetrahydroquinoline-4-carboxamide]
